The values below come from US9957251B2 (Takeda Pharmaceutical Company Limited, priority 2014, dated 2018).

In assay [1] the test system is human multiple myeloma RPMI8226 cells. As to the kind of experiment: Inhibitory activity against human multiple myeloma RPMI8226 cell growth (CellTiter-Glo). Format: cell-based. The following applies: 1 μM of the test compound, cultured for 8 days; for inhibition at 1 µM: Homo sapiens, RPMI-8226, 192 h, read-out: Percent inhibition of RPMI8226 cell growth (%); for Percent inhibition of RPMI8226 cell growth (%): 1 µM. On the procedure:
The compound of the present invention was evaluated for its inhibitory activity against human multiple myeloma RPMI8226 cell growth by the following method.
A suspension of human multiple myeloma RPMI8226 cells (purchased from the Health Protection Agency) was inoculated at 40 μL (300 cells/well) to a 384-well plate and cultured at 37° C. for 1 day in a 5% CO2 incubator. After the culture, each test compound solution was added thereto at a test concentration of 1 μM using TECAN D300, and the cells were further cultured for 8 days. After the culture, CellTiter-Glo™ Luminescent Cell Viability Assay reagent (Promega) was added at 40 μL/well to a 384-well plate, and the amount of luminescence was measured using a luminometer. Inhibitory activity against human multiple myeloma RPMI8226 cell growth (percent inhibition (%)) of the test compound was calculated according to the following formula, which is based on the hypothesis that the amount of residual ATP reflects the number of cells. In this formula, 100% control represents the amount of luminescence from a well with only 0.1% DMSO added. Percent inhibition (%)=(1−(amount of luminescence of the test compound)÷(100% control))×100
Background: Cellular ATP, detected with luciferase, serves as a proxy for viable cell number.

Assay [2] addresses T1, CDK19 (CDC2L6/CycC) (Homo sapiens, UniProt Q9BWU1).
T1 construct: purchased Carna Biosciences
As to the kind of experiment: CDK19 inhibitory activity (TR-FRET, Kinase Tracer-236 displacement). Format: binding. The note with it: 1 μM of the test compound; for inhibition at 1 µM: read-out: Percent inhibition of CDK19 activity (%); for Percent inhibition of CDK19 activity (%): 1 µM. On the procedure:
(§1) The compound of the present invention was evaluated for its CDK8 inhibitory activity and CDK19 inhibitory activity by the following method. […] The primary diluted solution was dispensed in the amount of 2 μL/well to a 384-well plate, and then, a mixed solution of Eu^3+ Cryptate conjugated mouse monoclonal antibody anti-glutathione S-transferase (Cisbio) diluted 267-fold with an assay buffer and 60 nM Kinase Tracer-236 (Life technologies) was added thereto at 2 μL/well. After the addition, each kinase solution (84 ng/mL CDK8/CycC (Carna Biosciences) diluted with an assay buffer used for CDK8 inhibitory activity measurement, and 87 ng/mL CDC2L6/CycC (Carna Biosciences) diluted with an assay buffer used for CDK19 inhibitory activity measurement) was further added thereto at 2 μL/well. After the addition, the plate was left standing at room temperature for 1 hour, and then, the fluorescence intensity (excitation wavelength 320 nm, fluorescence wavelength 615 nm, 665 nm, delay time 50 μsec) was measured using an EnVision plate reader (PerkinElmer).

In assay [3] the target is T2, CDK8/CycC (Homo sapiens, UniProt P49336).
T2 construct: purchased Carna Biosciences
T2 sequence (P49336 whole entry): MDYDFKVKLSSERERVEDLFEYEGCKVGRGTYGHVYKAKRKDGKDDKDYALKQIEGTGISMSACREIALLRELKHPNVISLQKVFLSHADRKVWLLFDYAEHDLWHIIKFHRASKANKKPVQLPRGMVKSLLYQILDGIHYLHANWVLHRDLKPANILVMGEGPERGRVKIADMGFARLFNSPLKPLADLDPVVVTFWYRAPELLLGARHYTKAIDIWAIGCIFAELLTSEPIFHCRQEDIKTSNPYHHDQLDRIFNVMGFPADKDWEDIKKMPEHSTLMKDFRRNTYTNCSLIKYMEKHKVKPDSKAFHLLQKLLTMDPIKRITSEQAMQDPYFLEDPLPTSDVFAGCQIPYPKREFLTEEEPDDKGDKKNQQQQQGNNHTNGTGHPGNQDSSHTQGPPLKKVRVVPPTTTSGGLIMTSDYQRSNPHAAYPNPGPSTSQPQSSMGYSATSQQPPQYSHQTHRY
T2 sequence (P24863 whole entry partner): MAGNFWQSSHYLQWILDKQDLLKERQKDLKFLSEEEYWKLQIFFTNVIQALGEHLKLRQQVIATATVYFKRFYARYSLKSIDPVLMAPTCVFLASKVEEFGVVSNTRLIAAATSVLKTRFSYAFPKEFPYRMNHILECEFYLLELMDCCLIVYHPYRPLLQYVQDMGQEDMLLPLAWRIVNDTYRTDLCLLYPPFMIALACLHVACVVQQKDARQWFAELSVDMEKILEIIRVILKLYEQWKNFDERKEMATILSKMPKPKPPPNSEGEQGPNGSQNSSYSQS
Put plainly: CDK8 inhibitory activity (TR-FRET, Kinase Tracer-236 displacement). The assay is classed as binding. The note with it: 1 μM of the test compound; for inhibition at 1 µM: read-out: Percent inhibition of CDK8 activity (%); for Percent inhibition of CDK8 activity (%): 1 µM. As to the method:
as §1
A general note: In TR-FRET formats the signal depends on donor and acceptor labels being close together.

T1 sequence (Q9BWU1 whole entry): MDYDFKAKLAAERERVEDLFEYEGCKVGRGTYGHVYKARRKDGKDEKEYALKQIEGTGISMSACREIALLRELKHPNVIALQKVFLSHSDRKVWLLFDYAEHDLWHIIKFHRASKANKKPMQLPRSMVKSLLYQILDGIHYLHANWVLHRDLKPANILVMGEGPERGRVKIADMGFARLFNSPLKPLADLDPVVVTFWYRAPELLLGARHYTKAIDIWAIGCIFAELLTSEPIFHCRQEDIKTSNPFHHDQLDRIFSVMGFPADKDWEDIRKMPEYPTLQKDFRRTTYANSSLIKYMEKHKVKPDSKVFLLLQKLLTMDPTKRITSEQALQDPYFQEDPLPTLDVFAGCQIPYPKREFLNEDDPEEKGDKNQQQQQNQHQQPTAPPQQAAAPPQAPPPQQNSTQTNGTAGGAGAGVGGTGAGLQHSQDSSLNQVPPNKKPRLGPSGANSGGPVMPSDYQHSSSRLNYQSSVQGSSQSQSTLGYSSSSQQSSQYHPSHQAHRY
T1 sequence (P24863 whole entry partner): as the sequence (P24863 whole entry partner) above

On to `Cn1cc(-c2ccncc2/C=C/C(=O)Nc2ccc(CC(F)(F)F)cc2)cn1` [Example 276, (2E)-3-(4-(1-methyl-1H-pyrazol-4-yl)pyridin-3-yl)-N-(4-(2,2,2-trifluoroethyl)phenyl)acrylamide], for which the inhibition – broadly, the change of the read-out against control, counted positive when it falls – at 1 µM in assay [1] came out at 60%; in assay [2], 92%; in assay [3], 99%.
The matching figures for `Cc1ncc(-c2ccncc2/C=C/C(=O)Nc2ccc(CN3CCOCC3)cc2)s1` [Example 151, (2E)-3-(4-(2-methyl-1,3-thiazol-5-yl)pyridin-3-yl)-N-(4-(morpholin-4-ylmethyl)phenyl)acrylamide]: 54%, 95% and 95%.
The matching figures for `O=C(/C=C/c1cnccc1-c1ccc2ncn(CC3CC3)c2c1)Nc1ccc(CN2CCOCC2)cc1` [Example 283, (2E)-3-(4-(1-(Cyclopropylmethyl)-1H-benzimidazol-6-yl)pyridin-3-yl)-N-(4-(morpholin-4-ylmethyl)phenyl)acrylamide]: 60%, 96% and 95%.
For `CCn1cc(-c2ccncc2CCC(=O)Nc2ccc(CN3CCOCC3)cc2)cn1` [Example 99, 3-(4-(1-Ethyl-1H-pyrazol-4-yl)pyridin-3-yl)-N-(4-(morpholin-4-ylmethyl)phenyl)propanamide], the inhibition at 1 µM in assay [1] was found to be 62%; in assay [2] it was 85%; in assay [3] it was 90%.
The matching figures for `Cn1cc(-c2ccncc2/C=C/C(=O)Nc2ccc3c(c2)CCN(CC(F)(F)F)C3)cn1` [Example 277, (2E)-3-(4-(1-methyl-1H-pyrazol-4-yl)pyridin-3-yl)-N′-(2-(2,2,2-trifluoroethyl)-1,2,3,4-tetrahydroisoquinolin-6-yl)acrylamide]: 65%, 101% and 98%.
The matching figures for `CC1CN(Cc2ccc(NC(=O)/C=C/c3cnccc3-c3cnn(C4CC4)c3)cc2)C1` [Example 322, (2E)-3-(4-(1-cyclopropyl-1H-pyrazol-4-yl)pyridin-3-yl)-N-(4-((3-methylazetidin-1-yl)methyl)phenyl)acrylamide]: 55%, 97% and 102%.
Taken in the same sequence, the figures for `CC(C)(O)Cc1ccc(NC(=O)/C=C/c2cncc(F)c2-c2cnn(C3CC3)c2)c(F)c1` [Example 332, (2E)-3-(4-(1-Cyclopropyl-1H-pyrazol-4-yl)-5-fluoropyridin-3-yl)-N-(2-fluoro-4-(2-hydroxy-2-methylpropyl)phenyl)acrylamide] were 60%, 99% and 102%.
`Cc1ccc(NC(=O)/C=C/c2cnccc2-c2cn[nH]c2)c(F)c1` [Example 296, (2E)-N-(2-fluoro-4-methylphenyl)-3-(4-(1H-pyrazol-4-yl)pyridin-3-yl)acrylamide]: the inhibition at 1 µM in assay [1] was found to be 59%; in assay [2], 97%; in assay [3], 100%.
Taken in the same sequence, the figures for `Cn1cc(-c2ccncc2/C=C/C(=O)Nc2ccc3ccncc3c2)cn1` [Example 156, (2E)-N-(isoquinolin-7-yl)-3-(4-(1-methyl-1H-pyrazol-4-yl)pyridin-3-yl)acrylamide] were 55%, 94% and 94%.
Taken in the same sequence, the figures for `COC1CN(Cc2ccc(NC(=O)/C=C/c3cnccc3-c3cnn(C4CC4)c3)cc2)C1` [Example 321, (2E)-3-(4-(1-cyclopropyl-1H-pyrazol-4-yl)pyridin-3-yl)-N-(4-((3-methoxyazetidin-1-yl)methyl)phenyl)acrylamide] were 59%, 99% and 101%.
For the molecule `COC(C)(C)Cc1ccc(NC(=O)/C=C/c2cnccc2-c2cnn(C3CC3)c2)cc1` [Example 272, (2E)-3-(4-(1-cyclopropyl-1H-pyrazol-4-yl)pyridin-3-yl)-N-(4-(2-methoxy-2-methylpropyl)phenyl)acrylamide], the results for the inhibition at 1 µM in assay [1], in assay [2] and in assay [3] were 67%, 94% and 101%, respectively.
The matching figures for `Cn1cc(-c2ccncc2/C=C/C(=O)Nc2ccc3c(c2)CCC3=O)cn1` [Example 176, (2E)-3-(4-(1-methyl-1H-pyrazol-4-yl)pyridin-3-yl)-N-(1-oxo-2,3-dihydro-1H-inden-5-yl)acrylamide]: 54%, 87% and 92%.
Taken in the same sequence, the figures for `O=C(/C=C/c1cncc(F)c1-c1cnn(C2CC2)c1)Nc1ccc(CN2CC3CC(C2)O3)cc1` [Example 336, (2E)-3-(4-(1-Cyclopropyl-1H-pyrazol-4-yl)-5-fluoropyridin-3-yl)-N-(4-(6-oxa-3-azabicyclo[3.1.1]hept-3-ylmethyl)phenyl)acrylamide] were 59%, 101% and 102%.
On to `Cn1cc(-c2ccncc2/C=C/C(=O)Nc2ccc(CN3CCN4CCCC4C3)cc2)cn1` (stereo not drawn) [Example 78, (2E)-N-(4-(hexahydropyrrolo[1,2-a]pyrazin-2(1H)-ylmethyl)phenyl)-3-(4-(1-methyl-1H-pyrazol-4-yl)pyridin-3-yl)acrylamide], for which the figures for the inhibition at 1 µM in assay [1], in assay [2] and in assay [3] were 59%, 74% and 100%, respectively.
Turning to `O=C(/C=C/c1cnccc1-c1ccc2nccn2c1)Nc1ccc(CN2CCOCC2)cc1` [Example 222, (2E)-3-(4-(imidazo[1,2-a]pyridin-6-yl)pyridin-3-yl)-N-(4-(morpholin-4-ylmethyl)phenyl)acrylamide], the inhibition at 1 µM stood at 52% in assay [1], 100% in assay [2] and 101% in assay [3].
Consider `O=C(/C=C/c1cnccc1-c1cnn(C2CC2)c1)Nc1ccc(CN2CC(F)(F)C2)cc1` [Example 375, (2E)-3-(4-(1-Cyclopropyl-1H-pyrazol-4-yl)pyridin-3-yl)-N-(4-((3,3-difluoroazetidin-1-yl)methyl)phenyl)acrylamide methanesulfonate], for which the “Percent inhibition of RPMI8226 cell growth (%)” value in assay [1] (methanesulfonate) turned out to be 70%. Moreover, in assay [2] (methanesulfonate), the “Percent inhibition of CDK19 activity (%)” value is reported as 101%. Also, the “Percent inhibition of CDK8 activity (%)” value in assay [3] (methanesulfonate) is on record as 102%.
`CCn1cc(-c2ccncc2/C=C/C(=O)Nc2ccc(CN3CCOCC3)cc2)cn1` [Example 92, (2E)-3-(4-(1-Ethyl-1H-pyrazol-4-yl)pyridin-3-yl)-N-(4-(morpholin-4-ylmethyl)phenyl)acrylamide]: the inhibition at 1 µM in assay [1] turned out to be 63%; in assay [2], 100%; in assay [3], 96%.
Taken in the same sequence, the figures for `Cn1cc(-c2ccncc2/C=C/C(=O)Nc2ccc(CN3CC4CC3CO4)cc2)cn1` (stereo not drawn) [Example 51, (2E)-3-(4-(1-methyl-1H-pyrazol-4-yl)pyridin-3-yl)-N-(4-(2-oxa-5-azabicyclo[2.2.1]hept-5-ylmethyl)phenyl)acrylamide] were 58%, 96% and 100%.
The matching figures for `Cn1cc(-c2ccc(NC(=O)/C=C/c3cnccc3-c3cnn(C4CC4)c3)cc2)cn1` [Example 281, (2E)-3-(4-(1-cyclopropyl-1H-pyrazol-4-yl)pyridin-3-yl)-N-(4-(1-methyl-1H-pyrazol-4-yl)phenyl)acrylamide]: 58%, 97% and 92%.
Consider `O=C(/C=C/c1cnccc1-c1cnn(C2CC2)c1)Nc1ccc(CN2CC(F)(F)C2)cc1` [Example 374, (2E)-3-(4-(1-Cyclopropyl-1H-pyrazol-4-yl)pyridin-3-yl)-N-(4-((3,3-difluoroazetidin-1-yl)methyl)phenyl)acrylamide diphosphate], for which the “Percent inhibition of RPMI8226 cell growth (%)” value in assay [1] was found to be 69%. In assay [2], the “Percent inhibition of CDK19 activity (%)” value was 100%. Moreover, the “Percent inhibition of CDK8 activity (%)” value in assay [3] stood at 100%.
`O=C(/C=C/c1cnccc1-c1cncs1)Nc1ccc(CN2CCOCC2)cc1` [Example 195, (2E)-N-(4-(morpholin-4-ylmethyl)phenyl)-3-(4-(1,3-thiazol-5-yl)pyridin-3-yl)acrylamide]: the inhibition at 1 µM is 52% in assay [1], 97% in assay [2] and 94% in assay [3].
